Several values for one entry are separate records, joined by “and”; a condition that tells them apart may be missing. Identical values can stand only once. Counter-ions that a name gives are not always drawn. Like-named read-outs stand apart in the source and are kept apart here. Some results are limits rather than exact numbers.

The source of these data is patent publication US10738041B2, “Ferroportin inhibitors” (Vifor (International) AG, priority 2015, dated 2020).

One test concerns the target T1, ferroportin (Fpn) (Mus musculus, UniProt Q9JHI9).
T1 construct: host or cells: J774 mouse macrophage cell line, Fe(III)-NTA induced
T1 sequence (Q9JHI9 1-570): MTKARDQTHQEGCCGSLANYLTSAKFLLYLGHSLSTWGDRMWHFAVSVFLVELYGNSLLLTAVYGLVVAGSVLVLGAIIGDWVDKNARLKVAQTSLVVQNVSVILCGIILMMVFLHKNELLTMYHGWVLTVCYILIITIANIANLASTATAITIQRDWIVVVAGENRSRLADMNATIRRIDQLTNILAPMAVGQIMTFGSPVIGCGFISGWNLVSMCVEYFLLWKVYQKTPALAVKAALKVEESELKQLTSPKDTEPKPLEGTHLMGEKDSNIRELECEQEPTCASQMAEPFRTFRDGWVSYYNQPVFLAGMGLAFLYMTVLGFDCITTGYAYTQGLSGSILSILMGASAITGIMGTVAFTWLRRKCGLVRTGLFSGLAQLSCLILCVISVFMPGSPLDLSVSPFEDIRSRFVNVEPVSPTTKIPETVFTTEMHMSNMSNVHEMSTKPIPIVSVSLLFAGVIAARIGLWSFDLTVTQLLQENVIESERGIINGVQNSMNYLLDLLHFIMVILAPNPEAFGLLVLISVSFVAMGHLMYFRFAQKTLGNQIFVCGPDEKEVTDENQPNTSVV
The experiment in a line: Hepcidin Internalization Assay (J774). The class given is cell-based. The conditions noted are these: average of multiple measurements; inhibition of TMR-hepcidin (25 nM) internalization into J774 cells; read-out: J774 IC50. The gist of the method: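 Inhibition of fluorescent TMR-hepcidin uptake via ferroportin was imaged in fixed J774 cells after a 2 h, 37 °C co-incubation with compound dilutions; cells were pre-cultured overnight with 200 μM Fe(III)NTA. Internalized TMR signal per cell (Sum(Mean)) was fitted as log(inhibitor) vs. response for IC50, in triplicate.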

The target in a further test is T2, human Fpn (Homo sapiens, UniProt Q9NP59).
T2 construct: FLAG (C); made in house; host or cells: Pichia pastoris
T2 sequence (Q9NP59 1-571): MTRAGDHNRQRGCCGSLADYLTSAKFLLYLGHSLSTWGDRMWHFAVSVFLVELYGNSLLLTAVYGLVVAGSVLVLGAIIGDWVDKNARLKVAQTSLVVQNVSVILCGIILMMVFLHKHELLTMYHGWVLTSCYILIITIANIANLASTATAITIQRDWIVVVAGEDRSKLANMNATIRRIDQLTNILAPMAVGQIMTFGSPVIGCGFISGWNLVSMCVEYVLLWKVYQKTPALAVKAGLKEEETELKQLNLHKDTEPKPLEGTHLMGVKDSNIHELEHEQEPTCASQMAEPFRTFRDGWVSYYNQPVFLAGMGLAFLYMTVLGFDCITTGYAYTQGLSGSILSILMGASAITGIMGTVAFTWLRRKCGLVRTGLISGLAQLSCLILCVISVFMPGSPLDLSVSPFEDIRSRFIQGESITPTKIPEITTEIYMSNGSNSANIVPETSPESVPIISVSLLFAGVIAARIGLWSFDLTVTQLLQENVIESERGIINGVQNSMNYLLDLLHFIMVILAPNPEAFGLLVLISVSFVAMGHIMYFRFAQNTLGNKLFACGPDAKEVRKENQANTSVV
The experiment in a line: Biophysical Ferroportin-Hepcidin Binding Assay (fluorescence polarization). Conditions: average of multiple measurements; 1 μM human Fpn, 20 nM TMR-hepcidin; read-out: FP IC50. The gist of the method: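 FP readout: a dose-dependent drop in TMR-hepcidin polarization (mP, from parallel and perpendicular emission) marked blocked binding to FLAG-tagged human Fpn purified from Pichia pastoris. Final levels were 1 μM Fpn and 20 nM TMR-hepcidin, with compound dilutions in duplicate, incubated 90 min at room temperature.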

Another test addresses T3, human Fpn-GFP fusion (Homo sapiens, UniProt Q9NP59).
T3 construct: expressed in transfected cells; host or cells: HEK-293 cell line #354 (derivative of HEK-293 Tet-ON Advanced, Clontech)
T3 sequence (Q9NP59 1-571): T2 sequence (Q9NP59 1-571)
The experiment in a line: Ferroportin Internalization and Degradation Assay (FACS). It is filed as cell-based. The conditions noted are these: average of multiple measurements, Fpn-GFP MFI, HEK-293 cell line #354, FACS; for DC50: read-out: EC50 ferroportin internalization and degradation. The method, then:
Growing HEK-293 #354 cells in doxycycline containing media induced expression of human Fpn-GFP fusion protein on the cell surface. […] Small molecular weight Fpn inhibitor compounds were tested for dose-dependent effects on the Fpn-GFP mean fluorescence intensity (MFI) on HEK-293 cell line #354, as described below. HEK #354 cells were harvested from ca. 80% confluent cultures, seeded at 0.6×10^6 (cells/ml in DMEM/F12 GlutaMAX™ medium (Invitrogen, Cat. 31331-028) containing 10% FBS (Clontech, Cat. 631106), 1% Penicillin-Streptomycin (Invitrogen, Cat. 15140-122), 200 μg/ml Hygromycin B (Invitrogen, Cat. 10687-010), Blasticidin 5 μg/ml, (Invitrogen, Cat. R210-01), 4 μg/ml doxycycline (Clontech, Cat. 631311), 50 μl per well of 384 well plates (Greiner; Cat. 781091) and grown at 37° C. with 5% CQ. After overnight incubation, 10 μl/well of dilution series of the test compounds were added in quadruplicates and plates were further incubated overnight at 37° C. with 5% CO2. Cells were washed once with FACS buffer (PBS containing 1% FBS, 2 mM EDTA and 0.05% NaN3), harvested in FACS buffer with 0.5 μg/ml propidium iodide (Sigma, Cat. P4864) and analyzed in a flow cytometer (CANTO™ II, BD Biosciences) equipped with high throughput sampler. Live HEK #354 cells were gated as propidium iodide negative population and analyzed for expression of Fpn-GFP.

The test system of the next test is naïve WT C57BL/6 mice. Put plainly: Hypoferremia in naïve mice. It is filed as in vivo, mouse. Conditions: Mus musculus, po, 3 h, read-out: Serum Iron Reduction at 3 h (%). The method, then: Female C57BL/6 mice (Janvier, France) at age of 9 weeks were fed a standard diet (Harlan Provimi Kliba 3436) and treated per os (p.o.) with compounds or the corresponding amount of vehicle at a volume of 10 ml/kg body weight. Fpn inhibitors were formulated in 0.5% methylcellulose/water or 20% cremophor EL/water and dosed p.o. in mice at 10, 30 or 100 mg/kg body weight. Three hours later, mice were pre terminally anesthetized in isoflurane chambers and blood was collected by retro-orbital bleeding. Mice were sacrificed by cervical dislocation and spleens, livers and duodena were harvested and used for biomarker analysis. All experiments have been conducted in compliance with the license approved by the responsible veterinarian authorities. Serum was isolated by centrifugation of blood into gel-containing microtainers and serum iron was determined by the MULTIGENT Iron assay (Abbott Diagnostics, 6K95). Eight mice per group were used and one-way ANOVA with Bonferroni's multiple comparison test was performed to analyze the statistical differences between the experimental groups.

Where [1] appears, read: Dose 10 mg/kg p.o., naïve WT C57BL/6 mice, relative to vehicle.
Where [2] appears, read: Dose 30 mg/kg p.o., naïve WT C57BL/6 mice, relative to vehicle.
[3] abbreviates: Dose 100 mg/kg p.o., naïve WT C57BL/6 mice, relative to vehicle.

Usually IC50 stands for the concentration at which inhibition is half-maximal. With `O=C(NCc1ncccc1F)c1cccc(CCNCCc2nc3ccccc3[nH]2)n1` [Example 146], the results for the IC50 at ferroportin (Fpn) and on human Fpn were 3.11 µM and 1.3 µM, respectively. On human Fpn-GFP fusion, the DC50 was found to be 25.3 µM.

Consider `O=C(NCC1CCCCN1)c1csc(CCNCc2nc3ccccc3[nH]2)n1` (stereo not drawn) [Example 185], for which the IC50 at ferroportin (Fpn) was found to be 2.23 µM; on human Fpn, 2.9 µM. In addition, on human Fpn-GFP fusion, the DC50 came to 14.4 µM.

Usually EC50 stands for the concentration at which the effect is half-maximal. The low end stands for higher potency in that assay, the high end for lower potency in that assay. For `O=C(Cn1cc(C(=O)NCc2ncccc2F)cn1)NCCc1nc2ccccc2[nH]1` [Example 117], the IC50 at ferroportin (Fpn) was determined as 9.7 µM; on human Fpn, 9 µM. For the same molecule, the EC50 on human Fpn-GFP fusion is > 25 µM and < 50 µM.

Turning to `O=C(NCc1ccccn1)c1coc(CCNCCc2nc3ccccc3[nH]2)n1` [Example 171], at ferroportin (Fpn), the IC50 is 0.026 µM. Further, in the test with naïve WT C57BL/6 mice (setting [1]), the inhibition in vivo at 10 mg/kg is 10%. Further, the inhibition in vivo at 30 mg/kg in the test with naïve WT C57BL/6 mice (setting [2]) is 42%. The inhibition in vivo at 100 mg/kg with naïve WT C57BL/6 mice (setting [3]) was 61%.

Regarding `O=C(NCc1ncccc1F)c1csc(CCNCc2cccc3nc[nH]c23)n1` [Example 140], the figures for the IC50 at ferroportin (Fpn) and on human Fpn were 3.73 µM and 6.9 µM, respectively. For the same molecule, at human Fpn-GFP fusion, the EC50 is > 20 µM and < 50 µM.

In the case of `O=C(NCc1ncccc1F)c1csc(CCNCc2ccc3nc[nH]c3c2)n1` [Example 139], the values for the IC50 at ferroportin (Fpn) and on human Fpn were 4.79 µM and 63.1 µM, respectively. The EC50 on human Fpn-GFP fusion is > 20 µM and < 50 µM.

`O=C(NCc1ncccc1F)c1csc([C@H]2[C@@H]3CN(Cc4nc5ccccc5[nH]4)C[C@@H]32)n1` [Example Compound No. 213, 2-[(1R,5S,6S)-3-(1H-1,3-Benzodiazol-2-ylmethyl)-3-azabicyclo[3.1.0]hexan-6-yl]-N-[(3-fluoropyridin-2-yl)methyl]-1,3-thiazole-4-carboxamide Trihydrochloride] displayed an EC50 at human Fpn-GFP fusion of 4.14 µM.

For the molecule `O=C(NCc1ccccn1)c1csc(CCNCCc2nc3ccccc3[nH]2)n1` [Example 58], on ferroportin (Fpn), the IC50 was 0.01 µM. Besides, the inhibition in vivo at 10 mg/kg with naïve WT C57BL/6 mice (setting [1]) amounted to 20%. Besides, the inhibition in vivo at 30 mg/kg in the test with naïve WT C57BL/6 mice (setting [2]) is 30%. In addition, the inhibition in vivo at 100 mg/kg in the test with naïve WT C57BL/6 mice (setting [3]) stood at 40%.

For `O=C(NCc1ncccc1F)c1csc(CCCNc2nc3ccccc3[nH]2)n1` [Example 135], the IC50 at ferroportin (Fpn) turned out to be 3.41 µM; at human Fpn, 36.9 µM. The molecule further had an EC50 at human Fpn-GFP fusion of 21.2 µM.

Regarding `O=C(NCc1ncccc1F)c1cn(CCNCCc2nc3ccccc3[nH]2)nn1` [compound 277], in the test with naïve WT C57BL/6 mice, the inhibition in vivo at 10 mg/kg worked out at 6%, the inhibition in vivo at 30 mg/kg stood at 21% and the inhibition in vivo at 100 mg/kg was determined as 54%.

As for `O=C(NCc1ncccc1F)c1cccc(CCN(CCc2nc3ccccc3[nH]2)CCc2nc3ccccc3[nH]2)n1` [Example 147], the values for the IC50 on ferroportin (Fpn) and at human Fpn were 0.533 µM and 0.56 µM, respectively. For the same molecule, at human Fpn-GFP fusion, the DC50 was 0.813 µM.

As for `O=C(NCc1ncccc1Cl)c1nc(CCNCc2nc3ccccc3[nH]2)sc1Cl` [Example 159], the IC50 at ferroportin (Fpn) was 0.091 µM. For the same molecule, the inhibition in vivo at 10 mg/kg in the test on naïve WT C57BL/6 mice (setting [1]) amounted to 4%. The inhibition in vivo at 30 mg/kg in the test with naïve WT C57BL/6 mice (setting [2]) was determined as 26%. Also, in the test on naïve WT C57BL/6 mice (setting [3]), the inhibition in vivo at 100 mg/kg was 60%.

For `O=C(NCc1ncccc1F)c1csc(CCN(Cc2nc3ccccc3[nH]2)Cc2nc3ccccc3[nH]2)n1` [Example 166], the figures for the IC50 on ferroportin (Fpn) and on human Fpn were 1.12 µM and 0.37 µM, respectively. The EC50 on human Fpn-GFP fusion is > 20 µM and < 50 µM.

On to `O=C(NCc1ncccc1F)c1cccc(CCNCc2nc3ccccc3[nH]2)n1` [Example 133], for which the IC50 stood at 4.56 µM on ferroportin (Fpn) and 2.5 µM at human Fpn. Moreover, the DC50 at human Fpn-GFP fusion was found to be 20.7 µM.

For `O=C(NCc1ncccc1F)c1csc(C2CN(CCc3nc4ccccc4[nH]3)C2)n1` [Example 193], on ferroportin (Fpn), the IC50 came out at 0.287 µM. The inhibition in vivo at 10 mg/kg in the test with naïve WT C57BL/6 mice (setting [1]) amounted to 13%. For the same molecule, in the test with naïve WT C57BL/6 mice (setting [2]), the inhibition in vivo at 30 mg/kg was 11%. Moreover, the inhibition in vivo at 100 mg/kg in the test with naïve WT C57BL/6 mice (setting [3]) worked out at 31%.

In the case of `O=C(NCc1ccccc1)c1csc(CCNCc2nc3ccccc3[nH]2)n1` [Example 1], the IC50 was 0.5 µM at ferroportin (Fpn) and 0.49 µM at human Fpn. The DC50 on human Fpn-GFP fusion stood at 4.66 µM.

Consider `O=C(NCc1ncccc1F)c1cnn(C2CN(Cc3nc4ccccc4[nH]3)C2)c1` [Example 136], for which the IC50 at ferroportin (Fpn) is over 10.5 µM; at human Fpn, 6.85 µM. The EC50 at human Fpn-GFP fusion is 17.9 µM.

On to `O=C(NCc1ccccc1)c1csc(CCNCc2ccncn2)n1` [Example 27], for which the IC50 at ferroportin (Fpn) came to 38.4 µM. Also, in the test with naïve WT C57BL/6 mice (setting [1]), the inhibition in vivo at 10 mg/kg was 20%. In the test on naïve WT C57BL/6 mice (setting [2]), the inhibition in vivo at 30 mg/kg turned out to be 30%. For the same molecule, the inhibition in vivo at 100 mg/kg in the test on naïve WT C57BL/6 mice (setting [3]) amounted to 45%.
